# Laboratory results published in publication PMC9887599, “Synthesis, Optical Properties, and Antiproliferative Evaluation of NBD-Triterpene Fluorescent Probes” (Journal of Natural Products, 2022).
# Legend:
# B16-F10 murine melanoma = experiment: MTT cell-viability assay, B16-F10; type: cell-based; conditions: Mus musculus, 72 h, untreated control cells as 100% viability
# Description: (§1) The cytotoxic effects of 12 NBD-Aa-triterpene conjugates (1–12) were tested on three different cancer cell lines as a representation of cancers from different tissues and organs (B16-F10 murine melanoma, HT-29 human colon adenocarcinoma, and HepG2 human hepatocyte carcinoma). Cell viability was determined by MTT colorimetric analysis, with increasing concentration levels of each compound (0–200 μg/mL) and incubation for 72 h. The MTT assay was based on the metabolic reduction of 3-(4,5-dimethylthiazol-2-yl)-2,5-diphenyltetrazolium bromide (MTT) to a violet-colored compound (formazan), with a maximum absorbance at 570 nm. Cell viability was proportional to the amount of formazan and was expressed as the percentage of viable treated cells relative to untreated control cells. The concentration at which the derivatives halved the number of viable cells in the three cancer lines (IC50) was determined. […] These NBD conjugates of BO or BM also had higher IC50 values than their precursors (BO or BM), even in NBD conjugates with the shortest-chain ω-amino acid linker (6AHA) (Table 2). Due to these high IC50 values, all of these NBD-conjugated compounds were discarded for further cytometric studies.
# (§2) The effect of the synthesized compounds on the viability of tumor cells was assessed using the MTT assay, based on the ability of living cells to metabolically reduce 3-(4,5-dimethylthiazole)-2,5-diphenyltetrazole bromide, rendering formazan, a colored compound with a maximum absorbance of 570 nm. To study the cytotoxic effects of the compounds in the three cancer cell lines, the different lines were seeded in 96-well plates at a cell density per well of 5 × 10^3 for B16-F10, 6 × 10^3 for HT-29, and 15 × 10^3 for HepG2. After seeding, the plates were grown for 24 h and subsequently treated in triplicate with different compounds at different concentrations (0–200 μg/mL) for 72 h. After this time, the cells were stained by adding […] of MTT (0.5 mg/mL) per well and incubated for 1 h. Subsequently, the cells were washed with phosphate-buffered saline (PBS), and formazan was resuspended in 100 μL of DMSO per well. Cell viability was measured by absorbance at 550 nm in an ELISA plate reader (Tecan Sunrise MR20–301, TECAN, Austria).
# (§3) For this, Sigmaplot 12.5 software was used, and all quantitative data were expressed as means ± standard deviation (SD). All data shown are representative of at least two independent experiments performed in triplicate.
# [1] = Absorption and fluorescence spectroscopy (photophysical data); type: physicochemical; conditions: DMSO, 25 °C; for τ (half-life time of fluorescence): 485 nm pulsed LED; for Φ (fluorescence quantum yield): Coumarin 6 as standard; for (λem)max: excitation at 480 nm
# [2] = tested on: HT-29 human colon adenocarcinoma; experiment: MTT cell-viability assay, HT-29; type: cell-based; conditions: 72 h, untreated control cells as 100% viability
# Description: as §1, §2, §3
# [3] = tested on: HepG2 human hepatocyte carcinoma; experiment: MTT cell-viability assay, HepG2; type: cell-based; conditions: 72 h, untreated control cells as 100% viability
# Description: as §1, §2, §3
# [4] = tested on: B16-F10, HT-29, and HepG2; experiment: MTT cell-viability assay, summary over the three cancer cell lines; type: cell-based, mouse, human; conditions: 72 h, stated as holding in most cases, read-out: IC50 concentrations over the three cancer cell lines, in most cases
# Description: as §1, §2, §3
SMILES,IC50 (B16-F10 murine melanoma),(λabs)max [1],ε (molar extinction coefficient) [1],τ (half-life time of fluorescence) [1],Φ (fluorescence quantum yield) [1],(λem)max [1],IC50 [2],IC50 [4],IC50 [3]
"CC1(C)CC[C@]2(C(=O)OCc3ccccc3)CC[C@]3(C)C(=CC[C@@H]4[C@@]5(C)CC[C@H](OC(=O)CCCCCNc6ccc([N+](=O)[O-])c7nonc67)C(C)(C)[C@@H]5CC[C@]43C)[C@@H]2C1 [Compound 3, Benzyl 3β-((6-((7-Nitrobenzo[C][1,2,5]oxadiazol-4-yl)amino)hexanoyl)oxy)olean-12-en-28-oate]",76.6 ± 3.7 µM,480 nm,4035 M^–1 cm^–1,7.761 ns,0.67,545 nm,63.3 ± 2.4 µM,> 80 µM,74.3 ± 0.7 µM
CC1(C)CC[C@]2(C(=O)OCc3ccccc3)CC[C@]3(C)C(=CC[C@@H]4[C@@]5(C)C[C@@H](OC(=O)CCCCCCCCCCNc6ccc([N+](=O)[O-])c7nonc67)[C@H](O)C(C)(C)[C@@H]5CC[C@]43C)[C@@H]2C1 [Compound 12],80.8 ± 0.9 µM,480 nm,2710 M^–1 cm^–1,7.633 ns,0.46,546 nm,108 ± 3.8 µM,> 80 µM,80.9 ± 1.1 µM
"CC1(C)CC[C@]2(C(=O)O)CC[C@]3(C)C(=CC[C@@H]4[C@@]5(C)C[C@@H](OC(=O)CCCCCCCCCCNc6ccc([N+](=O)[O-])c7nonc67)[C@H](O)C(C)(C)[C@@H]5CC[C@]43C)[C@@H]2C1 [Compound 10, 3β-Hydroxy-2α-((11-((7-nitrobenzo[c][1,2,5]oxadiazol-4-yl)amino)undecanoyl)oxy)olean-12-en-28-oic Acid]",107.7 ± 0.4 µM,481 nm,1199 M^–1 cm^–1,7.153 ns,0.45,546 nm,110 ± 5.2 µM,> 50 µM,122.8 ± 0.9 µM
"CC1(C)CC[C@]2(C(=O)OCc3ccccc3)CC[C@]3(C)C(=CC[C@@H]4[C@@]5(C)C[C@@H](OC(=O)CCCCCNc6ccc([N+](=O)[O-])c7nonc67)[C@H](O)C(C)(C)[C@@H]5CC[C@]43C)[C@@H]2C1 [Compound 4, Benzyl 3β-Hydroxy-2α-((6-((7-nitrobenzo[c][1,2,5]oxadiazol-4-yl)amino)hexanoyl)oxy)olean-12-en-28-oate]",96.4 ± 0.9 µM,480 nm,1338 M^–1 cm^–1,7.650 ns,0.72,545 nm,121 ± 4 µM,> 80 µM,91.2 ± 2.3 µM
"CC1(C)CC[C@]2(C(=O)OCc3ccccc3)CC[C@]3(C)C(=CC[C@@H]4[C@@]5(C)C[C@@H](O)[C@H](O)C(C)(C)[C@@H]5CC[C@]43C)[C@@H]2C1 [BM, 28-benzyl maslinate, reference compound]",19 ± 0.2 µM,–,–,–,–,–,15.3 ± 0.5 µM,–,17 µM
"CC1(C)CC[C@]2(C(=O)OCc3ccccc3)CC[C@]3(C)C(=CC[C@@H]4[C@@]5(C)C[C@@H](OC(=O)CCCCCCCNc6ccc([N+](=O)[O-])c7nonc67)[C@H](O)C(C)(C)[C@@H]5CC[C@]43C)[C@@H]2C1 [Compound 8, Benzyl 3β-Hydroxy-2α-((8-((7-nitrobenzo[c][1,2,5]oxadiazol-4-yl)amino)octanoyl)oxy)olean-12-en-28-oate]",96.8 ± 1.8 µM,481 nm,3358 M^–1 cm^–1,7.639 ns,0.59,548 nm,123 ± 1.7 µM,> 80 µM,95.3 ± 0.7 µM
"CC1(C)CC[C@]2(C(=O)O)CC[C@]3(C)C(=CC[C@@H]4[C@@]5(C)C[C@@H](O)[C@H](O)C(C)(C)[C@@H]5CC[C@]43C)[C@@H]2C1 [MA, 2α,3β-dihydroxyolean-12-en-28-oic acid, reference compound]",36.2 ± 2.5 µM,–,–,–,–,–,32.2 ± 3.8 µM,–,99.2 ± 5.5 µM
"CC1(C)CC[C@]2(C(=O)O)CC[C@]3(C)C(=CC[C@@H]4[C@@]5(C)CC[C@H](OC(=O)CCCCCCCCCCNc6ccc([N+](=O)[O-])c7nonc67)C(C)(C)[C@@H]5CC[C@]43C)[C@@H]2C1 [Compound 9, 3β-((11-((7-Nitrobenzo[c][1,2,5]oxadiazol-4-yl)amino)undecanoyl)oxy)olean-12-en-28-oic Acid]",101.1 ± 0.9 µM,481 nm,1015 M^–1 cm^–1,7.635 ns,0.71,546 nm,113 ± 4.4 µM,> 50 µM,84.5 ± 0.4 µM

# Continued by falling IC50 (B16-F10 murine melanoma), values first:
IC50 (B16-F10 murine melanoma),(λabs)max [1],ε (molar extinction coefficient) [1],τ (half-life time of fluorescence) [1],Φ (fluorescence quantum yield) [1],(λem)max [1],IC50 [2],IC50 [4],SMILES,IC50 [3]
137 ± 2 µM,480 nm,1144 M^–1 cm^–1,7.654 ns,0.73,545 nm,105 ± 1.2 µM,> 50 µM,"CC1(C)CC[C@]2(C(=O)O)CC[C@]3(C)C(=CC[C@@H]4[C@@]5(C)CC[C@H](OC(=O)CCCCCCCNc6ccc([N+](=O)[O-])c7nonc67)C(C)(C)[C@@H]5CC[C@]43C)[C@@H]2C1 [Compound 5, 3β-((8-((7-Nitrobenzo[c][1,2,5]oxadiazol-4-yl)amino)octanoyl)oxy)olean-12-en-28-oic Acid]",95.7 ± 3.4 µM
106 ± 3.7 µM,–,–,–,–,–,429.9 ± 0.7 µM,–,"CC1(C)CC[C@]2(C(=O)O)CC[C@]3(C)C(=CC[C@@H]4[C@@]5(C)CC[C@H](O)C(C)(C)[C@@H]5CC[C@]43C)[C@@H]2C1 [OA, 3β-hydroxyolean-12-en-28-oic acid, reference compound]",211.8 ± 0.5 µM
92.3 ± 1.5 µM,480 nm,2718 M^–1 cm^–1,7.645 ns,0.49,546 nm,101 ± 1.1 µM,> 80 µM,CC1(C)CC[C@]2(C(=O)OCc3ccccc3)CC[C@]3(C)C(=CC[C@@H]4[C@@]5(C)CC[C@H](OC(=O)CCCCCCCCCCNc6ccc([N+](=O)[O-])c7nonc67)C(C)(C)[C@@H]5CC[C@]43C)[C@@H]2C1 [Compound 11],82.7 ± 2.5 µM
74.2 ± 2.2 µM,480 nm,2645 M^–1 cm^–1,7.724 ns,0.71,547 nm,95.9 ± 2.2 µM,> 80 µM,"CC1(C)CC[C@]2(C(=O)OCc3ccccc3)CC[C@]3(C)C(=CC[C@@H]4[C@@]5(C)CC[C@H](OC(=O)CCCCCCCNc6ccc([N+](=O)[O-])c7nonc67)C(C)(C)[C@@H]5CC[C@]43C)[C@@H]2C1 [Compound 7, Benzyl 3β-((8-((7-Nitrobenzo[c][1,2,5]oxadiazol-4-yl)amino)octanoyl)oxy)olean-12-en-28-oate]",71.6 ± 1.7 µM
52.2 ± 0.9 µM,–,–,–,–,–,67.1 ± 3.2 µM,–,"CC1(C)CC[C@]2(C(=O)OCc3ccccc3)CC[C@]3(C)C(=CC[C@@H]4[C@@]5(C)CC[C@H](O)C(C)(C)[C@@H]5CC[C@]43C)[C@@H]2C1 [BO, 28-benzyl oleanolate, reference compound]",38.7 ± 1.7 µM
39.5 ± 0.8 µM,481 nm,1986 M^–1 cm^–1,7.621 ns,0.55,546 nm,45.2 ± 0.9 µM,> 50 µM,"CC1(C)CC[C@]2(C(=O)O)CC[C@]3(C)C(=CC[C@@H]4[C@@]5(C)C[C@@H](OC(=O)CCCCCCCNc6ccc([N+](=O)[O-])c7nonc67)[C@H](O)C(C)(C)[C@@H]5CC[C@]43C)[C@@H]2C1 [Compound 6, 3β-Hydroxy-2α-((8-((7-nitrobenzo[c][1,2,5]oxadiazol-4-yl)amino)octanoyl)oxy)olean-12-en-28-oic Acid]",98.5 ± 0.8 µM
